Source: patent US8703183B2 (priority 2008, dated 2014)

What was measured:
Sprague Dawley rats = format: in vivo; details: for Time of lowest level of glucose in blood after administration: both sexes; for Time of lowest level of glucose in blood after administration / Blood glucose level compared to females from the control group: single oral administration; for Mortality in females: single oral dose 1500 mg/kg, female Sprague Dawley rats; for Mortality in males: single oral dose (metformin salts 1500 mg/kg, Glycine 871.6 mg/kg), male Sprague Dawley rats; for Glucose reducing effect: single oral dose, Glycine 871.6 mg/Kg, metformin glycinate 1500 mg/kg
Description: . The following 14 days to administration, toxic effects were evaluated. […]; The cause to deaths was to a pronounced and fast drop in glycemia levels.

[1] = tested on: Hepatic origin cells: CCL13; details: 250 mg/ml to 0.12 mg/ml, 24 and 72 hours exposure
[2] = tested on: Kidney origin cells: CRL 1633; details: 250 mg/ml to 0.12 mg/ml, 24 and 72 hours exposure
[3] = tested on: Primary cultures: hepatocytes; details: 250 mg/ml to 0.12 mg/ml, 24 and 72 hours exposure
Wistar rats [4] = details: both, rat, in vivo, 28 days
Description: (§1) Number of animals: 50 Wistar rats, young adults 3 months of age, of both sexes, were used. Five batches with ten animals each. Four experimental groups (10 animals in each group) and a control group.
(§2) After fasting, different doses (low, medium, high, and satellite and control groups) of the product were orally administered using an orogastric tube.
(§3) • Low: 0.1 g/kg • Medium: 0.5 g/kg • High: 1.0 g/kg • Satellite 1.0 g/kg • Control: Only the carrier (Bidistilled water)

Wistar rats [5] = assay: Subacute toxicity study at 28 days (OECD Guideline 407); details: 0.1, 0.5, 1.0 g/kg oral
Description: as §1, §2, §3

| SMILES | Time of lowest level of glucose in blood after administration (Sprague Dawley rats) | Blood glucose level compared to females from the control group (Sprague Dawley rats) | Mortality in females (Sprague Dawley rats) [%] | Mortality in males (Sprague Dawley rats) | Glucose reducing effect (Sprague Dawley rats) | Lactate level in plasma (Sprague Dawley rats; day of oral administration, 1500 mg/kg) | Cytotoxicity [1] | Cytotoxicity [2] | Cytotoxicity [3] | Reversal of semi-pasty faeces during the course of the study (Wistar rats [4]) [th-11th] | Probable dose for the non-observable adverse effect (extrapolation) (Wistar rats [4]; po) [mg/kg] | Mortality during the 28-day study (Wistar rats [5]) |
| --- | --- | --- | --- | --- | --- | --- | --- | --- | --- | --- | --- | --- |
| CN(C)C(=N)NC(=N)N.Cl [Metformin hydrochloride, reference compound] | three | statistically lower blood glucose level 3 and 6 hours after | 10 | did not show mortality | – | – | – | – | – | – | – | – |
| NCC(=O)O [Glycine, reference compound] | – | – | – | did not show mortality | did not show a marked glucose reducing affect | – | – | – | – | – | – | – |
| CN(C)C(=N)NC(=N)N [Metformin glycinate, N,N-dimethylimidodicarbonimidic diamide glycinate] | three | statistically significant lower blood glucose level 15 min, 30 min and also 3 and 6 hours after | 30 | did not show mortality | more pronounced reduction of glucose levels | increase of lactate level in plasma | not cytotoxic | not cytotoxic | not cytotoxic | 9 | 500 to 1000 | No mortality |
